Experimental data reported in US20230277612A1, “SAPONIN DERIVATIVES FOR USE IN MEDICINE” (priority 2020, published 2023).
pIC50: −log10 of the molar value.

Tests used:
[1] = Critical micellar concentration (CMC) by ANS fluorescence; format: physicochemical
Protocol: The critical micellar concentration (CMC) of saponins derived from Saponaria officinalis (SO) (Table A7) and derived from Quillaja saponaria (QS) (Table A8, and Table A9) was determined by the method of DeVendittis et al. (A fluorimetric method for the estimation of the critical micelle concentration of surfactants, Analytical Biochemistry, Volume 115, Issue 2, August 1981, Pages 278-286) as follows:
(§1) The emission spectrum of 8-Anilinonaphthalene-1-sulfonic acid (ANS) in either purified water (MQ) or PBS (Dulbecco's PBS+/+) was determined at dry weight concentrations of saponins ranging from 1 to 1400 pM to cover the range below and above the CMC. Above the CMC, the fluorescence yield of ANS increases and the wavelength of maximum emission decreases due to portioning of the fluorescent dye into micelles. Fluorescence yields were recorded on a Fluoroskan Ascent FL (Thermo Scientific) at an excitation wavelength of 355 nm, and an emission wavelength of 460 nm. 6 μg at a concentration of 75.86 pM of ANS were used per sample and measurement.
The critical micellar concentration (CMC) of saponins was determined by the method of DeVendittis et al. (A fluorimetric method for the estimation of the critical micelle concentration of surfactants, Analytical Biochemistry, Volume 115, Issue 2, August 1981, Pages 278-286) as follows:
as §1, with “μM” for “pM”

[2] = tested on: EGFR expressing cells (HeLa and A431); settings: summary in description
HeLa cells [3] = assay: cells; format: cell-based; settings: saponin alone, read-out: IC50 toxicity
Protocol: (FIGS. 66a and 66B). Next toxicity was determined, for this the modified saponins were titrated on HeLa and A431 cells. […] Next toxicity was determined, for this the modified saponins were titrated on HeLa and A431 cells.

HeLa cells [4] = assay: Pilot cell-based bioassay: 10 μg/ml saponin with or without 1.5 pM dianthin-EGF, 72 h, relative cell viability; parameters: key to Cell killing activity (+ or −): Cell killing activity (+ or −); Cell killing activity (+ or −)
Protocol: HeLa cells were incubated for 72 h with the following constructs and cell viability before and after the 72 h-incubation was assessed. In the experiments, cells were exposed to 1.5 pM dianthin-EGF conjugate. A negative control were cells incubated with buffer vehicle and 10 microgram/ml saponin, without dianthin-EGF. Cell viability was set to 100% for the control in which both saponin and EGF-dianthin were omitted. […] Cell viability after 72 h was essentially 0%. For the chemically modified saponin variants, 10 microgram/ml saponin was tested in combination with 1.5 pM dianthin-EGF.

[5] = tested on: EGFR expressing cells (A431); assay: Saponin titration on fixed 10 pM cetuximab-saporin, cell viability (MTS); format: cell-based; settings: without cetuximab-saporin
[6] = tested on: EGFR expressing cells (A431); assay: Saponin titration on fixed 10 pM EGFdianthin, cell viability (MTS); format: cell-based; settings: without EGFdianthin
HeLa (EGFR+) cells = assay: Saponin titration in presence and absence of […] EGFdianthin, cell viability; format: cell-based; settings: in absence of EGFdianthin
Protocol: To extend this test, saponins from other sources were analyzed. A saponin purified from a root extract of Gypsophila elegans M.Bieb. […] FIG. 63C).

A431 (EGFR++) cells = assay: Saponin derivative titration in presence and absence of […] EGFdianthin, cell viability; format: cell-based; settings: A431, without EGFdianthin
A2058 (EGFR−) cells = assay: as above; format: cell-based; settings: without EGFdianthin
[7] = 10 μg/ml SO1861 or SO1861-derivative + […] EGFdianthin
[8] = 10 μg/ml SO1861 or SO1861-derivative alone

CC1OC(OC2C(C)OC(OC(=O)[C@]34CCC(C)(C)CC3C3=CCC5[C@@]6(C)CC[C@H](OC7OC(C(=O)O)C(O)C(OC8OCC(O)C(O)C8O)C7OC7OC(CO)C(O)C(O)C7O)[C@@](C)(C=O)C6CC[C@@]5(C)[C@]3(C)C[C@H]4O)C(OC3OC(C)C(OC4OCC(O)C(OC5OC(CO)C(O)C(O)C5O)C4O)C(O)C3O)C2O)C(O)C(OC2OCC(O)C(O)C2O)C1O (stereo partly drawn) [Molecule 8]
CMC compared to corresponding underivatised saponin [1]: increased CMC | Endosomal escape enhancing activity (enhancement of cytotoxicity of effector conjugate) [2]: display activity

CC1OC(OC2C(C)OC(OC(=O)[C@]34CCC(C)(C)CC3C3=CCC5[C@@]6(C)CC[C@H](OC7OC(C(=O)O)C(O)C(OC8OCC(O)C(O)C8O)C7OC7OC(CO)C(O)C(O)C7O)[C@@](C)(CO)C6CC[C@@]5(C)[C@]3(C)C[C@H]4O)C(OC3OC(C)C(OC4OCC(O)C(OC5OC(CO)C(O)C(O)C5O)C4O)C(O)C3O)C2O)C(O)C(OC2OCC(O)C(O)C2O)C1O (stereo partly drawn) [Molecule 10]
CMC compared to corresponding underivatised saponin [1]: increased CMC | Endosomal escape enhancing activity (enhancement of cytotoxicity of effector conjugate) [2]: have the capacity to enhance the cytotoxic effect

CC(=O)OC1C(C)OC(OC2C(C)OC(OC(=O)[C@]34CCC(C)(C)CC3C3=CCC5[C@@]6(C)CC[C@H](OC7OC(C(=O)O)C(O)C(OC8OCC(O)C(O)C8O)C7OC7OC(CO)C(O)C(O)C7O)[C@@](C)(C=O)C6CC[C@@]5(C)[C@]3(C)C[C@H]4O)C(OC3OC(C)C(OC4OCC(O)C(OC5OC(CO)C(O)C(O)C5O)C4O)C(O)C3O)C2O)C(O)C1OC1OCC(O)C(O)C1O (stereo partly drawn) [SO1861, reference compound]
pIC50 (HeLa cells [3]): 6.00 | CMC value ([1]; PBS): 185 µM | CMC ([1]; Table A7, determined in PBS): 185 ± 19 µM | Cell killing activity (+ or −) (HeLa cells [4]; [7]): + | Cell killing activity (+ or −) (HeLa cells [4]; [8]): − | Cell viability after 72 h (HeLa cells [4]; 10 microgram/ml saponin + […] dianthin-EGF, HeLa cells): ~0% | Cell killing activity of saponin alone [5]: no cell killing activity | Cell killing activity of saponin alone [6]: no cell killing activity | General toxicity (IC50 / highest concentration) (HeLa (EGFR+) cells): strong cell viability reduction | Toxicity as single compound (A431 (EGFR++) cells): strong cell viability reduction | Toxicity as single compound (A2058 (EGFR−) cells): strong cell viability reduction

CC(=O)OC1C(C)OC(OC2C(C)OC(OC(=O)[C@]34CCC(C)(C)CC3C3=CCC5[C@@]6(C)CC[C@H](OC7OC(C(=O)O)C(O)C(OC8OCC(O)C(O)C8O)C7OC7OC(CO)C(O)C(O)C7O)[C@@](C)(CO)C6CC[C@@]5(C)[C@]3(C)C[C@H]4O)C(OC3OC(C)C(OC4OCC(O)C(OC5OC(CO)C(O)C(O)C5O)C4O)C(O)C3O)C2O)C(O)C1OC1OCC(O)C(O)C1O (stereo partly drawn) [Molecule 6]
CMC compared to corresponding underivatised saponin [1]: increased CMC | Endosomal escape enhancing activity (enhancement of cytotoxicity of effector conjugate) [2]: have the capacity to enhance the cytotoxic effect

CC(=O)OC1C(C)OC(OC2C(C)OC(OC(=O)[C@]34CCC(C)(C)CC3C3=CCC5[C@@]6(C)CC[C@H](OC7OC(C(=O)NCCN8C(=O)C=CC8=O)C(O)C(OC8OCC(O)C(O)C8O)C7OC7OC(CO)C(O)C(O)C7O)[C@@](C)(C=O)C6CC[C@@]5(C)[C@]3(C)C[C@H]4O)C(OC3OC(C)C(OC4OCC(O)C(OC5OC(CO)C(O)C(O)C5O)C4O)C(O)C3O)C2O)C(O)C1OC1OCC(O)C(O)C1O (stereo partly drawn) [Molecule 18]
Endosomal escape enhancing activity (enhancement of cytotoxicity of effector conjugate) [2]: display activity

CC(=O)OC1C(C)OC(OC2C(C)OC(OC(=O)C34CCC(C)(C)CC3C3=CCC5C6(C)CCC(OC7OC(C(=O)O)C(O)C(OC8OCC(O)C(O)C8O)C7OC7OC(CO)C(O)C(O)C7O)C(C)(C=NNC(=O)CCOCCOCCOCCOCCN=[N+]=[N-])C6CCC5(C)C3(C)CC4O)C(OC3OC(C)C(OC4OCC(O)C(OC5OC(CO)C(O)C(O)C5O)C4O)C(O)C3O)C2O)C(O)C1OC1OCC(O)C(O)C1O (stereo not drawn)
Cell killing activity (+ or −) (HeLa cells [4]; [7]): + | Cell killing activity (+ or −) (HeLa cells [4]; [8]): − | pIC50 (HeLa (EGFR+) cells; read-out: General toxicity (IC50 / highest concentration)): < 5.00 | pIC50 (A431 (EGFR++) cells; read-out: Toxicity as single compound): < 5.00

CC(=O)OC1C(C)OC(OC2C(C)OC(OC(=O)C34CCC(C)(C)CC3C3=CCC5C6(C)CCC(OC7OC(C(=O)NC(C)(CO)CO)C(O)C(OC8OCC(O)C(O)C8O)C7OC7OC(CO)C(O)C(O)C7O)C(C)(C=NNC(=O)CCCCCN7C(=O)C=CC7=O)C6CCC5(C)C3(C)CC4O)C(OC3OC(C)C(OC4OCC(O)C(OC5OC(CO)C(O)C(O)C5O)C4O)C(O)C3O)C2O)C(O)C1OC1OCC(O)C(O)C1O (stereo not drawn) [Molecule 14]
Endosomal escape enhancing activity (enhancement of cytotoxicity of effector conjugate) [2]: have the capacity to enhance the cytotoxic effect

CC1OC(OC2C(C)OC(OC(=O)[C@]34CCC(C)(C)CC3C3=CCC5[C@@]6(C)CC[C@H](OC7OC(C(=O)NC(C)(CO)CO)C(O)C(OC8OCC(O)C(O)C8O)C7OC7OC(CO)C(O)C(O)C7O)[C@@](C)(C=O)C6CC[C@@]5(C)[C@]3(C)C[C@H]4O)C(OC3OC(C)C(OC4OCC(O)C(OC5OC(CO)C(O)C(O)C5O)C4O)C(O)C3O)C2O)C(O)C(OC2OCC(O)C(O)C2O)C1O (stereo partly drawn) [Molecule 11]
Endosomal escape enhancing activity (enhancement of cytotoxicity of effector conjugate) [2]: display activity

CC(=O)OC1C(C)OC(OC2C(C)OC(OC(=O)[C@]34CCC(C)(C)CC3C3=CCC5[C@@]6(C)CC[C@H](OC7OC(C(=O)NCCN8C(=O)C=CC8=O)C(O)C(OC8OCC(O)C(O)C8O)C7OC7OC(CO)C(O)C(O)C7O)[C@@](C)(CO)C6CC[C@@]5(C)[C@]3(C)C[C@H]4O)C(OC3OC(C)C(OC4OCC(O)C(OC5OC(CO)C(O)C(O)C5O)C4O)C(O)C3O)C2O)C(O)C1OC1OCC(O)C(O)C1O (stereo partly drawn) [Molecule 20]
Endosomal escape enhancing activity (enhancement of cytotoxicity of effector conjugate) [2]: have the capacity to enhance the cytotoxic effect

CC1OC(OC2C(C)OC(OC(=O)C34CCC(C)(C)CC3C3=CCC5C6(C)CCC(OC7OC(C(=O)O)C(O)C(OC8OCC(O)C(O)C8O)C7OC7OC(CO)C(O)C(O)C7O)C(C)(C=NNC(=O)CCCCCN7C(=O)C=CC7=O)C6CCC5(C)C3(C)CC4O)C(OC3OC(C)C(OC4OCC(O)C(OC5OC(CO)C(O)C(O)C5O)C4O)C(O)C3O)C2O)C(O)C(OC2OCC(O)C(O)C2O)C1O (stereo not drawn) [Molecule 15]
CMC compared to corresponding underivatised saponin [1]: increased CMC | Endosomal escape enhancing activity (enhancement of cytotoxicity of effector conjugate) [2]: have the capacity to enhance the cytotoxic effect
